Where two headings read alike, the source gives them in different places.
How the values were obtained:
[1] = tested on: nontumorigenic HEK-293 cells; assay: XTT cell viability assay, HEK-293; type: cell-based, human; details: Homo sapiens, HEK293, 72 h
Procedure: (§1) Human breast cancer (MCF-7), human lung cancer (H69AR), and human prostate cancer (PC-3) human nontumorigenic HEK-293 cells were obtained from the Health Protection Agency (UK) and Interlab Cell Line Collection (ICLC, Italy). Cells were maintained in RPMI medium (Sigma) containing 10% heat-inactivated fetal bovine serum, 1% penicillin, and 1% L-glutamine in a 37° humidified CO2 incubator.
(§2) XTT (2,3-bis(2-methoxy-4-nitro-5-sulfophenyl)-2H-tetrazolium-5-carboxanilide) cell viability test was used to determine the cytotoxic activities of SPPs, which were dissolved in dimethyl sulfoxide (DMSO). Cells were seeded in 96-well plates at a density of 10^4/well and treated with increasing concentrations of SPP (1–250 μM) for 24, 48, and 72 h. After the incubation period, 100 μL of XTT was added to all experimental wells, and 96-well plates were incubated at 37 °C for 4 h. After the color change was observed, the absorbance values of the wells were recorded at 570 nm in the microplate reader (Tecan). The IC50 values for all synthesized compounds, representing the concentration needed to inhibit 50% of cancer cell proliferation, were determined using Biosoft CalcuSyn 2.1 software.[13] The following formula was used to calculate selectivity indexes (SIs), which represent the cytotoxic selectivity of SPPs against cancer cells and normal cells (HEK-293): […]

[2] = tested on: MCF-7 breast cancer cells; assay: XTT cell viability assay, MCF-7; type: cell-based, human
Procedure: as §1, §2

H69AR lung cancer cells [3] = assay: XTT cell viability assay, H69AR; type: cell-based, human
Procedure: as §1, §2

[4] = tested on: PC-3 prostate cancer cells; assay: XTT cell viability assay, PC-3; type: cell-based, human
Procedure: as §1, §2

[5] = tested on: MCF-7 breast cancer cells; assay: Annexin V/PI flow cytometric detection of apoptosis, MCF-7; type: cell-based, human; details: MCF-7, treated at IC50, 72 h
Description: (§3) During apoptosis, PS translocates from the inner to outer regions of the plasma membrane, making it a valuable marker for apoptosis identification. Annexin V specifically attaches to PS present on the surface of apoptotic cells. To differentiate between apoptotic and viable cells with intact membranes, a secondary dye such as […] (PI) is employed. By assessing fluorescence patterns, viable cells (annexin V- and PI-) and apoptotic cells (annexin V+ and PI+) can be distinguished, providing insights into their respective percentages. We used FITC Annexin V Apoptosis Detection Kit I (BD Pharmingen).[15] […] Subsequently, cells were washed with cold PBS, resuspended in […] of 1× Binding Buffer, and stained with 5 μL of Annexin V FITC and 5 μL of PI. After vortexing, the solution was incubated at room temperature (25 °C) for 15 min in the dark. At the end of the incubation, 400 μL of 1× Binding Buffer was added to each sample, and apoptosis was assessed using flow cytometry (BD Accuri C6 Flow Cytometer).

H69AR lung cancer cells [6] = assay: Annexin V/PI flow cytometric detection of apoptosis, H69AR; type: cell-based, human; details: treated at IC50, 72 h
Description: as §3

[7] = tested on: PC-3 prostate cancer cells; assay: Annexin V/PI flow cytometric detection of apoptosis, PC-3; type: cell-based, human; details: PC-3, treated at IC50, 72 h
Description: as §3

Bcl-2 = assay: Western blot, Bcl-2 protein level; type: cell-based, human
Procedure: (§4) For the extraction of total proteins, the M-PER Mammalian Protein Extraction Reagent from Thermo Fisher was utilized. Specifically, cells were treated with 250 μL of the extraction reagent and incubated at room temperature for 10 min with gentle shaking at 300 rpm. After this step, the cell suspension underwent centrifugation at 14,000g for 10 min, and the resulting supernatant was collected. Determination of the protein concentration was carried out using the Bradford method. Following this, protein separation was accomplished through SDS polyacrylamide gel electrophoresis, followed by transfer to nitrocellulose membranes. Post transfer, the membranes underwent blocking with 5% nonfat dry milk for 1 h and were subjected to three washes with Tris-buffered saline (TBS). Incubation with primary antibodies (Bcl-2: Anti-Bcl-2 antibody [ab196495, Abcam]; Bax: Anti-Bax antibody [ab216494, Abcam]; cytochrome c: Anticytochrome c antibody [ab4051]; EGFR: Anti-EGFR antibody [ab32077]) occurred overnight at 4 °C. β-Actin served as the loading control. After the washing steps, the membranes were exposed to secondary antibodies for 1 h at room temperature (1:1000 dilution). Visualization of protein bands was performed using the Kodak Gel Logic 1500 imaging system, and quantification was carried out using ImageJ software.[16]

Bax = assay: Western blot, Bax protein level; type: cell-based, human
Procedure: as §4

cytochrome c = assay: Western blot, cytochrome c protein level; type: cell-based, human
Procedure: as §4

EGFR = EGFR (Homo sapiens, UniProt P00533); assay: EGFR kinase inhibitory assay (HTRF); type: biochemical; details: read-out: EGFR kinase inhibition IC50
EGFR, sequence (P00533 25-1210): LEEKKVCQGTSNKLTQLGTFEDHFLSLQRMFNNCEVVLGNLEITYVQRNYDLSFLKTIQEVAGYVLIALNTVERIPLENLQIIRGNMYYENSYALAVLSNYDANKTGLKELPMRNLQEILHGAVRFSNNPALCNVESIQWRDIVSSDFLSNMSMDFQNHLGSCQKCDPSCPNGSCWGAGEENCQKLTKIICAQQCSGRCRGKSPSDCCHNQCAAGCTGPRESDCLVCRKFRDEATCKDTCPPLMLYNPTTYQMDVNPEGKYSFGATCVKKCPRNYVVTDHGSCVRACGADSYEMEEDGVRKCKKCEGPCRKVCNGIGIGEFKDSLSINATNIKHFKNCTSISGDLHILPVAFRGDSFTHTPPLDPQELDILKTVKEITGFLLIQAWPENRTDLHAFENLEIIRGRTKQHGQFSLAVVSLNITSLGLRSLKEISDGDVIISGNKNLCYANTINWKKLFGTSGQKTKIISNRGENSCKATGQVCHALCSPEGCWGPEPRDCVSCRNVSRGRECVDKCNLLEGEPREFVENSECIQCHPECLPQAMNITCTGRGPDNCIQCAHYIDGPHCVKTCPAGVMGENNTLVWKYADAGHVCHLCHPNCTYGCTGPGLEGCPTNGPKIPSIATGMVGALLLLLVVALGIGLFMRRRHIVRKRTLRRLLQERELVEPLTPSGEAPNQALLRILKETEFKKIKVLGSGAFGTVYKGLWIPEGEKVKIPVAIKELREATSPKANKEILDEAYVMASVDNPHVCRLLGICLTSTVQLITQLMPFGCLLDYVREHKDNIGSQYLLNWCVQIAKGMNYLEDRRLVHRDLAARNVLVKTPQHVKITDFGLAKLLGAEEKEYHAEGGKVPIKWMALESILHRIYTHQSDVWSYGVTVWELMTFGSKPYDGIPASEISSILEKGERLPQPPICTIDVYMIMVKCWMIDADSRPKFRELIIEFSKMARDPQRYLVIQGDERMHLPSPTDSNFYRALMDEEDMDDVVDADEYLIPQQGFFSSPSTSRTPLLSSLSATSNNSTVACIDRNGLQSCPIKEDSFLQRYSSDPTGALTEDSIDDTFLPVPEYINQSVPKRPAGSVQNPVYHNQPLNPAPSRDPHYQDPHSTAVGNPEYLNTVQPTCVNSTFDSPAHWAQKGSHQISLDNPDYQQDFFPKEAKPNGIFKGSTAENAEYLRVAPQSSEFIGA
Procedure: The inhibitory effects of the target compounds on various EGFR kinases were evaluated through a well-established homogeneous time-resolved fluorescence (HTRF) method-based assay, utilizing the HTRF KinEASE-TK kit (cat #62TK0PEC, Cisbio).[17] SPP10 underwent screening at progressively diluted concentrations in the presence of 1% dimethyl sulfoxide (DMSO), preceded by a 5 min preincubation of the kinase and compounds. […] Following a 1 h plate incubation, readings were taken on a microplate reader using standard HTRF settings. IC50 values were determined using GraphPad Prism 5.0 software. Each reaction was carried out in duplicate, and a minimum of three independent determinations were performed. The data were analyzed using GraphPad Prism.

EGFRT790M = EGFRT790M (Homo sapiens, UniProt P00533, T790M); assay: EGFRT790M kinase inhibitory assay (HTRF); type: biochemical; details: read-out: EGFRT790M kinase inhibition IC50
EGFRT790M, sequence (P00533 25-1210 T790M): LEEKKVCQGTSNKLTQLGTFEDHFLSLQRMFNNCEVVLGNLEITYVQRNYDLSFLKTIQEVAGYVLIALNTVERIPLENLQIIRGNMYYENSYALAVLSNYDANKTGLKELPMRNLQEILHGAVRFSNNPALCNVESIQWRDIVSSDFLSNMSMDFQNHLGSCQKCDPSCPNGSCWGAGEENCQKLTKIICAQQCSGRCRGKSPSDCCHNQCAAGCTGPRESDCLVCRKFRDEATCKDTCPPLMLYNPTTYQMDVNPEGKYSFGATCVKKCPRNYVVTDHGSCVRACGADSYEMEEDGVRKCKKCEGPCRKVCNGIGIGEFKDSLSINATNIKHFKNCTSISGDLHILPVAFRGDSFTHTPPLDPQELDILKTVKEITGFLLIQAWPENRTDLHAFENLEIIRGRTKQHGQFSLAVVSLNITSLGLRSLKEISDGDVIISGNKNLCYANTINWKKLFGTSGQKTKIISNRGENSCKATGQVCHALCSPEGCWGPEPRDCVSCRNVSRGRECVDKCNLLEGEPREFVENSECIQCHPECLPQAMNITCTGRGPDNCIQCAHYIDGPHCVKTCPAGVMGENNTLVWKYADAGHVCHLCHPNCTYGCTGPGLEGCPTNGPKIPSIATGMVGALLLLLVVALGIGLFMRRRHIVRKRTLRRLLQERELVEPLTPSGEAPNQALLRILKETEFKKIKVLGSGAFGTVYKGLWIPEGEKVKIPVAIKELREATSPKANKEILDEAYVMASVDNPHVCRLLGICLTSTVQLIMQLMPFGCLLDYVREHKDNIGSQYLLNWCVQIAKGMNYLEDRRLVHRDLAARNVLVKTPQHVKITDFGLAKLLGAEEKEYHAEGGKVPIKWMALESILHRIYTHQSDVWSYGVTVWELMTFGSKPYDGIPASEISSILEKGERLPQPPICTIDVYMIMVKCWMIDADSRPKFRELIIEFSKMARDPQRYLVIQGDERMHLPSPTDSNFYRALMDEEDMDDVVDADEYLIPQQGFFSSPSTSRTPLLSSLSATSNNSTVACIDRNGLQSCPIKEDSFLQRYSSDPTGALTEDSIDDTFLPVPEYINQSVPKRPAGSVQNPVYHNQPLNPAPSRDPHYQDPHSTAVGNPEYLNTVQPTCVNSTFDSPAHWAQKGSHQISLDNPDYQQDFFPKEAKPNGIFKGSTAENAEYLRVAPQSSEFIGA
Procedure: The inhibitory effects of the target compounds on various EGFR kinases were evaluated through a well-established homogeneous time-resolved fluorescence (HTRF) method-based assay, utilizing the HTRF KinEASE-TK kit (cat #62TK0PEC, Cisbio).[17] SPP10 underwent screening at progressively diluted concentrations in the presence of 1% dimethyl sulfoxide (DMSO), preceded by a 5 min preincubation of the kinase and compounds. Initiation of all reactions occurred by adding ATP and TK-substrate-biotin, followed by a 60 min incubation at room temperature and subsequent quenching with a stop buffer containing 62.5 nM Strep-XL665 and TK antibody (Ab)-Cryptate. Following a 1 h plate incubation, readings were taken on a microplate reader using standard HTRF settings. IC50 values were determined using GraphPad Prism 5.0 software. Each reaction was carried out in duplicate, and a minimum of three independent determinations were performed. The data were analyzed using GraphPad Prism.

EGFRWT = assay: Western blot, EGFR protein; type: cell-based, human; details: 72 h, MCF-7, H69AR and PC-3 cells
Procedure: as §4

**Q.** How did the IC50 [1] turn out when `c1ccc(-c2nnc(-c3ccccc3)c3c2C(c2ccsc2)=NC32CCCCC2)cc1` [SPP10] was run?
**A.** 26800 ± 400 nM

**Q.** What about the IC50 ([2]; Homo sapiens, MCF7, XTT, 72 h) of the same compound?
**A.** 2310 ± 300 nM

**Q.** And the “selectivity index (SI) MCF-7” value ([2]; versus HEK-293)?
**A.** 11.6

**Q.** And the IC50 (H69AR lung cancer cells [3]; Homo sapiens, H69AR, XTT, 72 h)?
**A.** 3160 ± 800 nM

**Q.** And the “selectivity index (SI) H69AR” value (H69AR lung cancer cells [3]; versus HEK-293)?
**A.** 8.48

**Q.** And the IC50 ([4]; Homo sapiens, XTT, 72 h)?
**A.** 4200 ± 200 nM

**Q.** What about the “selectivity index (SI) PC-3” value ([4]; versus HEK-293) of the same compound?
**A.** 6.38

**Q.** What about the “percentage of early apoptotic cells” value [5] of the same compound?
**A.** 28.7%

**Q.** What about the “percentage of late apoptotic cells” value [5] of the same compound?
**A.** 59.3%

**Q.** What about the “percentage of early apoptotic cells” value (H69AR lung cancer cells [6]) of the same compound?
**A.** 25.6%

**Q.** And the “percentage of late apoptotic cells” value (H69AR lung cancer cells [6])?
**A.** 61.2%

**Q.** And the “percentage of early apoptotic cells” value [7]?
**A.** 21.8%

**Q.** And the “percentage of late apoptotic cells” value [7]?
**A.** 64.9%

**Q.** And the “Bcl-2 protein level inhibited by” value (Bcl-2; H69AR, IC50 of SPP10, 72 h)?
**A.** 2.6 fold

**Q.** And the “Bcl-2 protein level inhibited by” value (Bcl-2; MCF-7, IC50 of SPP10, 72 h)?
**A.** 2.3 fold

**Q.** What about the “Bcl-2 protein level inhibited by” value (Bcl-2; PC-3, IC50 of SPP10, 72 h) of the same compound?
**A.** 3.2 fold

**Q.** And the “Bax protein level induced by” value (Bax; H69AR, IC50 of SPP10, 72 h)?
**A.** 4.1 fold

**Q.** What about the “Bax protein level induced by” value (Bax; MCF-7, IC50 of SPP10, 72 h) of the same compound?
**A.** 3.4 fold

**Q.** And the “Bax protein level induced by” value (Bax; PC-3, IC50 of SPP10, 72 h)?
**A.** 5.2 fold

**Q.** What about the “Cytochrome c level induced by” value (cytochrome c; H69AR, IC50 of SPP10, 72 h) of the same compound?
**A.** 3.6 fold

**Q.** And the “Cytochrome c level induced by” value (cytochrome c; MCF-7, IC50 of SPP10, 72 h)?
**A.** 3.8 fold

**Q.** And the “Cytochrome c level induced by” value (cytochrome c; PC-3, IC50 of SPP10, 72 h)?
**A.** 4.4 fold

**Q.** What about the IC50 (EGFR; in H69AR cells) of the same compound?
**A.** 200 nM

**Q.** What about the IC50 (EGFR; in MCF-7 cells) of the same compound?
**A.** 400 ± 120 nM

**Q.** And the IC50 (EGFR; in PC-3 cells)?
**A.** 420 ± 800 nM

**Q.** What about the IC50 (EGFR; span in cancer cells) of the same compound?
**A.** 200 to 420 nM

**Q.** And the IC50 (EGFRT790M; in H69AR cells)?
**A.** 250 ± 700 nM

**Q.** What about the IC50 (EGFRT790M; in MCF-7 cells) of the same compound?
**A.** 370 ± 200 nM

**Q.** What about the IC50 (EGFRT790M; in PC-3 cells) of the same compound?
**A.** 390 ± 200 nM

**Q.** And the “inhibition of EGFRWT protein (western blot)” value (EGFRWT)?
**A.** concentration-dependent inhibition

From publication PMC11154717, “Evaluation of Novel Spiro-pyrrolopyridazine Derivatives as Anticancer Compounds: In Vitro Selective Cytotoxicity, Induction of Apoptosis, EGFR Inhibitory Activity, and Molecular Docking Analysis” (ACS Omega, 2024)
